{
  "source": "paper PMC3815685",
  "about": "(ACS chemical biology, 2013)",
  "key": {"PiCSAD": {"target": "PiCSAD (Polaribacter irgensii, UniProt A4C1C8)", "assay": "decarboxylation, OPA-HPLC, partially purified enzyme", "type": "biochemical", "details": "PBS pH 7.4, 10 μM PLP, 4 °C"}, "hCSAD": {"target": "T1, hCSAD (Homo sapiens, UniProt Q9Y600)", "T1 sequence (Q9Y600 1-493)": "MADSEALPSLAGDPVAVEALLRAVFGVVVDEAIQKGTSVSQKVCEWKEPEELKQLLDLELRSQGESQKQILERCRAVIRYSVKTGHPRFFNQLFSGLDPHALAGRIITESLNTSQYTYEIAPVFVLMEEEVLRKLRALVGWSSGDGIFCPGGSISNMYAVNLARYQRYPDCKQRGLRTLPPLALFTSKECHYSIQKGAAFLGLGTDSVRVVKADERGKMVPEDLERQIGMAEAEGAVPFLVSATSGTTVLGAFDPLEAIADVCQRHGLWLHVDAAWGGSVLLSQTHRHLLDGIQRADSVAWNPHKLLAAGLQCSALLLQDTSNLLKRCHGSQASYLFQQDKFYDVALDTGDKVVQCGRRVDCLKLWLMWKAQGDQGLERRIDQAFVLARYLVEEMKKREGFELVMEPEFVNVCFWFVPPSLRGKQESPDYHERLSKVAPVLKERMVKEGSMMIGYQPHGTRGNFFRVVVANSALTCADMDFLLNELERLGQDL", "assay": "inhibition of CSA decarboxylation, OPA-HPLC of hypotaurine/taurine", "type": "biochemical"}},
  "data": [
    {"smiles": "N[C@@H](CS(=O)O)C(=O)O", "note": "[CSA, cysteine sulfinic acid]", "values": [
      {"measurement": "decarboxylation, OPA-HPLC, partially purified enzyme", "setting": "PiCSAD", "value": "showed decarboxylation of CSA but no detectable activity towards CA or L-Glu"}
    ]},
    {"smiles": "N[C@@H](CCC(=O)O)C(=O)O", "note": "[L-Glu, L-glutamic acid]", "values": [
      {"measurement": "IC50", "setting": "hCSAD", "value": "1100 ± 100", "unit": "µM"}
    ]}
  ]
}
